Experimental data as given in patent US7405204B2, “Nucleoside compounds for treating viral infections” (Genelabs Technologies, Inc., priority 2005, dated 2008).
Blank lines part the entries; values can stand above or below the compound they belong to.

How the values were obtained:
HCV-NS5b = target: T1, HCV-NS5b (Hepatitis C virus genotype 1b, UniProt Q9WMX2); assay: HCV-NS5b enzyme assay; type: biochemical; conditions: recombinant NS5b, 37° C., 2 hours, read-out: % inhibition of polymerase activity ([3H]-UTP incorporation)
T1 construct: The cloned fragment was missing the C terminus 21 amino acid residues; (His)6 (C); made in house; host or cells: XL-1 cells (E. coli)
Source text: The coding sequence of NS5b protein was cloned by PCR from pFKI389luc/NS3-3′/ET as described by Lohmann, V., et al. (1999) Science 285, 110-113 using the primers shown on page 266 of WO 2005/012288.
The cloned fragment was missing the C terminus 21 amino acid residues. The cloned fragment was inserted into an IPTG-inducible expression plasmid that provides an epitope tag (His)6 at the carboxy terminus of the protein.
The recombinant enzyme was expressed in XL-1 cells and after induction of expression, the protein was purified using affinity chromatography on a nickel-NTA column. Storage condition was 10 mM Tris-HCl pH 7.5, 50 mM NaCl, 0.1 mM EDTA, 1 mM DTT, 20% glycerol at −20° C.
The polymerase activity was assayed by measuring incorporation of radiolabeled UTP into a RNA product using a biotinylated, heteropolymeric template, which includes a portion of the HCV genome. Typically, the assay mixture (34 μL) contains 10 mM Tris-HCl (pH 7.5), 5 mM MgCl2, 0.2 mM EDTA, 10 mM KCl, 1 unit/μL RNAsin, 1 mM DTT, 10 μM each of NTP, including [^3H]-UTP, and 10 ng/μL biotinylated heteropolymeric template. […] Incorporation of radioactivity was determined by scintillation counting (cpm). The % Inhibition at a particular concentration was determined using the following equation, % Inhibition=100−[100*(cpm with inhibitor−bg)/(cpm with no inhibitor−bg)] where bg was the background with no enzyme.

[1] = tested on: HCV replicon I389luc-ubi-neo/NS3-3′/ET in ET (Huh-lucubineo-ET) cell line; assay: Replicon assay (luciferase reporter); type: cell-based; conditions: Hepatitis C virus, read-out: % inhibition of replication (luciferase)
Method: A cell line, ET (Huh-lucubineo-ET) was used for screening of compounds for inhibiting HCV RNA dependent RNA polymerase. The ET cell line was stably transfected with RNA transcripts harboring a I389luc-ubi-neo/NS3-3′/ET; replicon with firefly luciferase-ubiquitin-neomycin phosphotransferase fusion protein and EMCV-IRES driven NS3-5B polyprotein containing the cell culture adaptive mutations (E1202G; T1280I; K1846T) (Krieger at al, 2001 and unpublished). The ET cells were grown in DMEM, supplemented with 10% fetal calf serum, 2 mM Glutamine, Penicillin (100 IU/mL)/Streptomycin (100 μg/mL), 1× nonessential amino acids, and 250 μg/mL G418 (“Geneticin”). They were all available through Life Technologies (Bethesda, Md.). The cells were plated at 0.5-1.0×10^4 cells/well in the 96 well plates and incubated for 24 hrs before adding test compound. […] Luciferase activity was measured 48-72 hours later by adding a lysis buffer and the substrate (Catalog number Glo-lysis buffer E2661 and Bright-Glo luciferase system E2620 Promega, Madison, Wis.). […] Under the same condition, cytotoxicity of the compounds was determined using cell proliferation reagent, WST-1 (Roche, Germany). […] IC50 and TC50 values were calculated by fitting % inhibition at each concentration to the following equation: % inhibition=100%/[(IC50/[I])^b+1] where b is Hill's coefficient. […]

inhibition at 6 µM (HCV-NS5b): 95%
SMILES: C#Cc1cn(C2OC(COP(=O)(O)OP(=O)(O)OP(=O)(O)O)[C@@H](O)[C@@]2(C)F)c2ncnc(N)c12 (stereo partly drawn) [[4-Amino-5-ethynyl-7-(2-deoxy-2-fluoro-2-C-methyl-β-D-ribofuanosyl)-7H-pyrrolo[2,3-d]pyrimidine]5′-triphosphate]

SMILES: C#Cc1cn(C2OC(COP(=O)(NC(C)C(=O)OC)Oc3ccccc3)[C@@H](O)[C@@]2(C)F)c2ncnc(N)c12 (stereo partly drawn) [[4-Amino-5-ethynyl-7-(2-deoxy-2-fluoro-2-C-methyl-β-D-ribofuanosyl)-7H-pyrrolo[2,3-d]pyrimidine]5′-[Rp/Sp-Methoxyalaninylphenylphosphate]]
inhibition at 12.5 µM [1]: 11%

SMILES: C#Cc1cn(C2OC(CO)[C@@H](O)[C@@]2(C)F)c2ncnc(N)c12 (stereo in doubt) [4-Amino-5-ethynyl-7-(2-deoxy-2-fluoro-2-C-methyl-β-D-ribofuanosyl)-7H-pyrrolo[2,3-d]pyrimidine]
inhibition at 50 µM [1]: 60%
